Experimental data as given in publication PMC5578999, “Novel quinolone chalcones targeting colchicine-binding pocket kill multidrug-resistant cancer cells by inhibiting tubulin activity and MRP1 function” (Scientific Reports, 2017).

Tests used:
Test in all cases: NCI-60 SRB screen
Type in all cases: cell-based
HCT-15 = test system: HCT-15
Source text: (§1) Supplementary Figure l egend
(§2) 10μ M of CTR-20 was used to examine the drug’s efficac y against the NC I-60 cancer cell li nes including: six leukemia cell lines, nine non- small cell lung cancer cell lines, seven color ect al cancer cell lines, six CNS cancer cell lines, nine melanoma cell lines, seven ovari an can cer cell lines, seven ren al can cer cell lines, two prostate cancer cell lines and six breast cancer cell lines. The scr eenin g was car r ied out b y the US National Cancer Institute (NC I) us i n g a sulforhodamine B (SRB) colorimetric assay. […]
(§3) out by the NC I using five different doses of CTR -20.

LOX IMVI = test system: LOX IMVI
Source text: as §1, §2, §3

A498 = test system: A498
Source text: as §1, §2, §3

HL-60(TB) = test system: HL-60(TB)
Source text: as §1, §2, §3

OVCAR-3 = test system: OVCAR-3
Source text: as §1, §2, §3

MCF7 = test system: MCF7
Source text: as §1, §2, §3

[1] = Homo sapiens, read-out: LC50 (the source's name)

`COc1ccc2[nH]c(=O)c(/C=C/C(=O)c3ccccc3OC)cc2c1` [CTR-20, (E)-6-Methoxy-3-(3-(2-methoxyphenyl)-3-oxoprop-1-enyl) quinolin-2(1H)-one] gave a Log10GI50 (HCT-15) of -6.40 Molar, a Log10LC50 (HCT-15) of -5.08 Molar and a Log10TGI (HCT-15) of -5.69 Molar. The TGI (HCT-15) was 2.05E-6 Molar, the “Growth Percent” value (HCT-15; 1.00E-5 Molar) was 11.32% and the GI50 (HCT-15; Homo sapiens) was 395 nM. The LC50 (HCT-15; Homo sapiens) was 8290 nM, the “Percent Growth” value (HCT-15; Log10 Concentration -4.0) was -85% and the “Percent Growth” value (HCT-15; Log10 Concentration -5.0) was -57%. For the same compound, the “Percent Growth” value (HCT-15; Log10 Concentration -6.0) was 26%, the “Percent Growth” value (HCT-15; Log10 Concentration -7.0) was 86% and the “Percent Growth” value (HCT-15; Log10 Concentration -8.0) was 95%. For the same compound, the Log10GI50 (LOX IMVI) was -6.42 Molar, the Log10LC50 (LOX IMVI) was -5.33 Molar and the Log10TGI (LOX IMVI) was -5.79 Molar. The TGI (LOX IMVI) was 1.61E-6 Molar, the “Growth Percent” value (LOX IMVI; 1.00E-5 Molar) was 10.23% and the GI50 (LOX IMVI; Homo sapiens) was 379 nM. For the same compound, the LC50 (LOX IMVI; Homo sapiens) was 4710 nM, the “Percent Growth” value (LOX IMVI; Log10 Concentration -4.0) was -95% and the “Percent Growth” value (LOX IMVI; Log10 Concentration -5.0) was -85%. The “Percent Growth” value (LOX IMVI; Log10 Concentration -6.0) was 22%, the “Percent Growth” value (LOX IMVI; Log10 Concentration -7.0) was 88% and the “Percent Growth” value (LOX IMVI; Log10 Concentration -8.0) was 96%. For the same compound, the Log10GI50 (A498) was -6.18 Molar, the Log10LC50 (A498) was -4.63 Molar and the Log10TGI (A498) was -5.34 Molar. For the same compound, the TGI (A498) was 4.55E-6 Molar, the “Growth Percent” value (A498; 1.00E-5 Molar) was 21.71% and the GI50 (A498; Homo sapiens) was 656 nM. The CC50 (A498; [1]) was 23600 nM, the “Percent Growth” value (A498; Log10 Concentration -4.0) was -100% and the “Percent Growth” value (A498; Log10 Concentration -5.0) was -20%. For the same compound, the “Percent Growth” value (A498; Log10 Concentration -6.0) was 39%, the “Percent Growth” value (A498; Log10 Concentration -7.0) was 99% and the “Percent Growth” value (A498; Log10 Concentration -8.0) was 97%. For the same compound, the Log10GI50 (HL-60(TB)) was -6.69 Molar, the Log10LC50 (HL-60(TB)) was greater than -4.00 Molar and the Log10TGI (HL-60(TB)) was -6.05 Molar. For the same compound, the TGI (HL-60(TB)) was 8.83E-7 Molar, the “Growth Percent” value (HL-60(TB); 1.00E-5 Molar) was -2.46% and the GI50 (HL-60(TB); Homo sapiens) was 206 nM. The CC50 (HL-60(TB); [1]) was greater than 100000 nM, the “Percent Growth” value (HL-60(TB); Log10 Concentration -4.0) was -37% and the “Percent Growth” value (HL-60(TB); Log10 Concentration -5.0) was -12%. The “Percent Growth” value (HL-60(TB); Log10 Concentration -6.0) was -4%, the “Percent Growth” value (HL-60(TB); Log10 Concentration -7.0) was 75% and the “Percent Growth” value (HL-60(TB); Log10 Concentration -8.0) was 97%. It also gave a Log10GI50 (OVCAR-3) of -6.44 Molar, a Log10LC50 (OVCAR-3) of -5.03 Molar and a Log10TGI (OVCAR-3) of -5.78 Molar. The TGI (OVCAR-3) was 1.64E-6 Molar, the “Growth Percent” value (OVCAR-3; 1.00E-5 Molar) was 8.25% and the GI50 (OVCAR-3; Homo sapiens) was 359 nM. For the same compound, the CC50 (OVCAR-3; [1]) was 9330 nM, the “Percent Growth” value (OVCAR-3; Log10 Concentration -4.0) was -96% and the “Percent Growth” value (OVCAR-3; Log10 Concentration -5.0) was -52%. For the same compound, the “Percent Growth” value (OVCAR-3; Log10 Concentration -6.0) was 14%, the “Percent Growth” value (OVCAR-3; Log10 Concentration -7.0) was 95% and the “Percent Growth” value (OVCAR-3; Log10 Concentration -8.0) was 102%. For the same compound, the Log10GI50 (MCF7) was -6.51 Molar, the Log10LC50 (MCF7) was greater than -4.00 Molar and the Log10TGI (MCF7) was -5.13 Molar. The TGI (MCF7) was 7.48E-6 Molar, the “Growth Percent” value (MCF7; 1.00E-5 Molar) was 10.02% and the GI50 (MCF7; Homo sapiens) was 312 nM. The CC50 (MCF7; [1]) was greater than 100000 nM, the “Percent Growth” value (MCF7; Log10 Concentration -4.0) was -44% and the “Percent Growth” value (MCF7; Log10 Concentration -5.0) was -2%. For the same compound, the “Percent Growth” value (MCF7; Log10 Concentration -6.0) was 16%, the “Percent Growth” value (MCF7; Log10 Concentration -7.0) was 83% and the “Percent Growth” value (MCF7; Log10 Concentration -8.0) was 86%.
